Assay results reported in US20230149362A1, “NEW CAPSULE COMPOSITION FOR PERORAL ADMINISTRATION” (Vicore Pharma AB, priority 2020, published 2023).
Structures can show the parent of a compound that is named as a salt. Where two headings read alike, the source gives them in different places.

Experiments:
Type in all cases: physicochemical
[1] = Solubility of C21 sodium salt in aqueous vehicles; settings: for solubility: thermodynamic from solid, saturation not reached, read-out: Concentration (solubility)
Description: In this experiment, C21 sodium salt (Syntagon AB) was added to the vehicle, small amounts at a time. About 20-30 mg of the sodium salt was easily dissolved in all the vehicles tested. Salt was continuously added to the same sample in an attempt to obtain a saturated solution. In this way, higher amounts, such as 40-60 mg/mL could be dissolved. The solubility is probably even higher than this in the vehicles tested, but this was not established in view of the limited amount of drug compound available.

[2] = Stability of aqueous solutions of C21 under four storage conditions (sensitivity to light); settings: for Amount of Free C21, % of initial / Solution pH: sodium salt solution
Description: The stability of free C21 in 0.9% NaCl pH 9.4 was investigated.
Solutions of 1 mg/mL of C21 were studied for four weeks under four different storage conditions. The solution was filtered through a 0.22 sterile syringe filter to minimize bacterial growth during the stability test. The samples were analysed by HPLC for purity.
The results are summarised in Table 3 below, in which the amount of C21 is given as a percentage of the initial amount of drug. Solution pHs were also measured and are shown within parenthesis in Table 3.
The stability of the sodium salt of C21 was also investigated under the same storage conditions.
At the time for analysis of the one week samples, it was noted that the heating cabinet for storage of samples at 40° C. was broken. In view of this, these samples were thereafter kept at room temperature for three days.

[3] = Compatibility study of C21 sodium salt with lipid-based ingredients and capsule shell components
Description: Experiments were then performed to assess the chemical compatibility of C21 with selected pharmaceutically-acceptable lipid-based ingredients (some, but not all, of which were also studied in Example 3 above), as well as the main soft shell gelatin capsule components, under accelerated conditions.
The compatibility study was performed by storing at 40° C. and 75% RH for eight weeks in a climatic chamber (Weiss Technik), during which an analysis of impurities formed was performed after four (T4) and eight (T8) weeks.
An additional experiment was performed by storing for eight weeks at room temperature in the laboratory (with controlled temperature and humidity).
Testing of C21 sodium salt in the absence of excipients was performed as a reference.
In Table 6, the generic names and the sources of the various excipients are the same as presented above, e.g. in Table 5.
Samples A0 to A16 and B1 were prepared in 20 mL glass vials, with two preparations being prepared for each time point. Samples C1 to C16 and D1 were prepared in 20 mL glass vials, with one preparation for each time point.
Assay and impurity evaluations were made using the same Waters UPLC Acquity system and essentially the same chromatographic conditions as described in Example 3 above.
The impurity analysis is summarized in Table 7 below, in which C21 assay values (I) and impurity values (II) are presented as % recovery and represent the average value obtained for each mixture on the two sample preparations.

[4] = 40° C., dark, 1 week, heating cabinet found broken
[5] = T4 (four weeks), 40° C. and 75% RH
[6] = T8 (eight weeks), 40° C. and 75% RH
[7] = T8 (eight weeks), Ambient temp.

For `CCCCOC(=O)NS(=O)(=O)c1sc(CC(C)C)cc1-c1ccc(Cn2ccnc2)cc1` [C21 sodium salt, N-butyloxycarbonyl-3-(4-imidazol-1-ylmethylphenyl)-5-iso-butylthiophene-2-sulfonamide], the solubility ([1]; aqueous buffer, vehicle PBS pH 7.4, measured pH 9.4) was greater than 40 mg/mL, the “solubility compared with free C21” value ([1]; aqueous vehicles) was “considerably higher than free C21” and the solubility ([1]; saline or isotonic, vehicle 0.9% NaCl, pH 9.3) was greater than 40 mg/mL. For the same molecule, the “amount that could be dissolved” value ([1]; vehicles tested (H2O, 0.9% NaCl, PBS), salt added continuously) was 40 to 60 mg/mL, the solubility ([1]; water, vehicle H2O, pH 9.8) was greater than 65 mg/mL and the light-induced degradation ([2]; aqueous solution, RT/light) was “light-induced degradation occurs”. For the same molecule, the “Amount of Free C21, % of initial” value ([2]; 5° C., dark, 1 week) was 108 % of initial, the “Solution pH” value ([2]; 5° C., dark, 1 week) was “(8.5)” and the “Amount of Free C21, % of initial” value ([2]; 5° C., dark, 2 weeks) was 113 % of initial. The “Solution pH” value ([2]; 5° C., dark, 2 weeks) was “(8.4)”, the “Amount of Free C21, % of initial” value ([2]; 5° C., dark, 3 weeks) was 113 % of initial and the “Solution pH” value ([2]; 5° C., dark, 3 weeks) was “(8.5)”. For the same molecule, the “Amount of Free C21, % of initial” value ([2]; 5° C., dark, 4 weeks) was 112 % of initial, the “Solution pH” value ([2]; 5° C., dark, 4 weeks) was “(8.5)” and the “Amount of Free C21, % of initial” value ([2]; 5° C., dark, Initial) was 100 % of initial. For the same molecule, the “Solution pH” value ([2]; 5° C., dark, Initial) was “(8.3)”, the “Amount of Free C21, % of initial” value [2, 4] was 111 % of initial and the “Solution pH” value [2, 4] was “(8.6)”. The “Amount of Free C21, % of initial” value ([2]; 40° C., dark, 2 weeks) was 111 % of initial, the “Solution pH” value ([2]; 40° C., dark, 2 weeks) was “(8.5)” and the “Amount of Free C21, % of initial” value ([2]; 40° C., dark, 3 weeks) was 109 % of initial. For the same molecule, the “Solution pH” value ([2]; 40° C., dark, 3 weeks) was “(8.7)”, the “Amount of Free C21, % of initial” value ([2]; 40° C., dark, 4 weeks) was 118 % of initial and the “Solution pH” value ([2]; 40° C., dark, 4 weeks) was “(8.1)”. The “Amount of Free C21, % of initial” value ([2]; 40° C., dark, Initial) was 100 % of initial, the “Solution pH” value ([2]; 40° C., dark, Initial) was “(8.3)” and the “Amount of Free C21, % of initial” value ([2]; RT, dark, 1 week) was 115 % of initial. For the same molecule, the “Solution pH” value ([2]; RT, dark, 1 week) was “(8.6)”, the “Amount of Free C21, % of initial” value ([2]; RT, dark, 2 weeks) was 110 % of initial and the “Solution pH” value ([2]; RT, dark, 2 weeks) was “(8.8)”. The “Amount of Free C21, % of initial” value ([2]; RT, dark, 3 weeks) was 111 % of initial, the “Solution pH” value ([2]; RT, dark, 3 weeks) was “(8.8)” and the “Amount of Free C21, % of initial” value ([2]; RT, dark, 4 weeks) was 112 % of initial. For the same molecule, the “Solution pH” value ([2]; RT, dark, 4 weeks) was “(8.2)”, the “Amount of Free C21, % of initial” value ([2]; RT, dark, Initial) was 100 % of initial and the “Solution pH” value ([2]; RT, dark, Initial) was “(8.3)”. The “Amount of Free C21, % of initial” value ([2]; RT, light, 1 week) was 108 % of initial, the “Solution pH” value ([2]; RT, light, 1 week) was “(8.4)” and the “Amount of Free C21, % of initial” value ([2]; RT, light, 2 weeks) was 96 % of initial. For the same molecule, the “Solution pH” value ([2]; RT, light, 2 weeks) was “(8.0)”, the “Amount of Free C21, % of initial” value ([2]; RT, light, 3 weeks) was 72 % of initial and the “Solution pH” value ([2]; RT, light, 3 weeks) was “(8.3)”. The “Amount of Free C21, % of initial” value ([2]; RT, light, 4 weeks) was 9 % of initial, the “Solution pH” value ([2]; RT, light, 4 weeks) was “(7.3)” and the “Amount of Free C21, % of initial” value ([2]; RT, light, Initial) was 100 % of initial. For the same molecule, the “Solution pH” value ([2]; RT, light, Initial) was “(8.3)”, the “C21 assay values (I)” value ([3]; T0) was 98.2 % recovery and the “impurity values (II)” value ([3]; T0) was 0.24 % recovery. For the same molecule, the “C21 assay values (I)” value [3, 5] was 102.2 % recovery, the “impurity values (II)” value [3, 5] was 0.23 % recovery and the “C21 assay values (I)” value [3, 6] was 101.3 % recovery. The “impurity values (II)” value [3, 6] was 0.25 % recovery, the “C21 assay values (I)” value [3, 7] was 102.0 % recovery and the “impurity values (II)” value [3, 7] was 0.24 % recovery.
